Data taken from the supplement of paper PMC5908809.

Columns and labels:
[1] = tested on: normal NK cells expanded with K562-aAPC; assay: percent inhibition of viability; higher = more inhibition; conditions: 72 h, IL-2 2.5 ng/mL
Protocol: (§1)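 Drug sensitivity and resistance testing on K562-aAPC-expanded normal NK cells: 5 concentrations (10-fold steps over a 10,000-fold range), 72 h at 37 °C, viability by CellTiter-Glo normalised to DMSO and benzethonium chloride controls; DSS from the fitted curve.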

NKL (IL-2 2.5 ng/mL) [2] = assay: as above; conditions: 72 h
NK-92 (IL-2 2.5 ng/mL) [3] = assay: as above; conditions: 72 h
YT (IL-2 2.5 ng/mL) [4] = assay: as above; conditions: 72 h
[5] = tested on: normal primary NK cells, pool 1 (3 donors), resting (IL-2 0 ng/mL); assay: as above; conditions: 72 h
[6] = tested on: normal primary NK cells, pool 2 (3 donors) (IL-2 2.5 ng/mL); assay: as above; conditions: 72 h
KAI3 (IL-2 2.5 ng/mL) [7] = assay: as above; conditions: 72 h
[8] = tested on: normal primary NK cells, pool 1 (3 donors) (IL-2 2.5 ng/mL); assay: as above; conditions: 72 h
[9] = tested on: normal primary NK cells, pool 3 (3 donors) (IL-2 2.5 ng/mL); assay: as above; conditions: 72 h
IMC-1 (IL-2 20 ng/mL) [10] = assay: as above; conditions: 72 h
NK-YS (IL-2 2.5 ng/mL) [11] = assay: as above; conditions: 72 h
DERL-7 (IL-2 2.5 ng/mL) [12] = assay: as above; conditions: 72 h
SNK-6 (IL-2 2.5 ng/mL) [13] = assay: as above; conditions: 72 h
KHYG-1 (IL-2 2.5 ng/mL) [14] = assay: as above; conditions: 72 h
NKL (IL-2 2.5 ng/mL) [15] = assay: drug sensitivity score (DSS) (DSS units); higher = more sensitive; extreme values may be limits of the assay; conditions: 72 h
NK-92 (IL-2 2.5 ng/mL) [16] = assay: as above; conditions: 72 h
YT (IL-2 2.5 ng/mL) [17] = assay: as above; conditions: 72 h
[18] = tested on: normal primary NK cells, pool 1 (3 donors), resting (IL-2 0 ng/mL); assay: as above; conditions: 72 h
[19] = tested on: normal primary NK cells, pool 2 (3 donors) (IL-2 2.5 ng/mL); assay: as above; conditions: 72 h
KAI3 (IL-2 2.5 ng/mL) [20] = assay: as above; conditions: 72 h
[21] = tested on: normal primary NK cells, pool 1 (3 donors) (IL-2 2.5 ng/mL); assay: as above; conditions: 72 h
[22] = tested on: normal primary NK cells, pool 3 (3 donors) (IL-2 2.5 ng/mL); assay: as above; conditions: 72 h
IMC-1 (IL-2 20 ng/mL) [23] = assay: as above; conditions: 72 h
NK-YS (IL-2 2.5 ng/mL) [24] = assay: as above; conditions: 72 h
DERL-7 (IL-2 2.5 ng/mL) [25] = assay: as above; conditions: 72 h
SNK-6 (IL-2 2.5 ng/mL) [26] = assay: as above; conditions: 72 h
KHYG-1 (IL-2 2.5 ng/mL) [27] = assay: as above; conditions: 72 h
[28] = tested on: normal NK cells expanded with K562-aAPC; assay: as above; conditions: 72 h; IL-2 2.5 ng/mL
Protocol: as §1

COc1cc(Nc2ncc(F)c(Nc3ccc4c(n3)NC(=O)C(C)(C)O4)n2)cc(OC)c1OC [Tamatinib] (max concentration tested 10000 nM)
percent inhibition of viability [%]
Conditions | 1 nM | 10 nM | 100 nM | 1000 nM | 10000 nM
DERL-7 (IL-2 2.5 ng/mL) [12] | -3.21 | -4.44 | -1.63 | 29.5 | 38.5
IMC-1 (IL-2 20 ng/mL) [10] | -4.81 | -0.95 | -11 | -15.5 | 56.1
KAI3 (IL-2 2.5 ng/mL) [7] | 4.14 | 8.73 | 12.3 | 52.5 | 82.4
KHYG-1 (IL-2 2.5 ng/mL) [14] | 1.54 | -0.18 | 6.88 | 36 | 99.6
NK-92 (IL-2 2.5 ng/mL) [3] | -17.2 | -0.02 | -13.7 | 11 | 90.4
NK-YS (IL-2 2.5 ng/mL) [11] | -3.68 | -3.13 | -0.99 | 12.5 | 56.2
NKL (IL-2 2.5 ng/mL) [2] | -1.49 | -0.26 | 2.39 | 34.2 | 68.3
SNK-6 (IL-2 2.5 ng/mL) [13] | 2.85 | 9.06 | -0.26 | -7.25 | 83
YT (IL-2 2.5 ng/mL) [4] | 2.46 | 0.67 | 2.31 | 5.93 | 82.7
[1] | 0.12 | 1.7 | 1.14 | 27.4 | 36.2
[5] | -31.4 | -30.1 | -18.1 | -11 | -3.1
[6] | -10 | -7.66 | -17.3 | 5.93 | 49.9
[8] | -10.3 | -6.76 | 7.45 | 9.38 | 25.4
[9] | -10.4 | -5.15 | -13.3 | 2.62 | 54.5

Conditions | drug sensitivity score
DERL-7 (IL-2 2.5 ng/mL) [25] | 5.34
IMC-1 (IL-2 20 ng/mL) [23] | 2.27
KAI3 (IL-2 2.5 ng/mL) [20] | 11.7
KHYG-1 (IL-2 2.5 ng/mL) [27] | 9.92
NK-92 (IL-2 2.5 ng/mL) [16] | 6.83
NK-YS (IL-2 2.5 ng/mL) [24] | 5.03
NKL (IL-2 2.5 ng/mL) [15] | 7.84
SNK-6 (IL-2 2.5 ng/mL) [26] | 4.09
YT (IL-2 2.5 ng/mL) [17] | 5.49
[18] | 0
[19] | 3.61
[21] | 1.62
[22] | 3.27
[28] | 5

N#CC(c1ccnc(OCc2ccc(CN3CCOCC3)cc2)n1)c1nc2ccccc2s1 (stereo not drawn) [Bentamapimod] (max concentration tested 10000 nM)
percent inhibition of viability [%]
Conditions | 1 nM | 10 nM | 100 nM | 1000 nM | 10000 nM
DERL-7 (IL-2 2.5 ng/mL) [12] | -1.64 | -1.25 | -0.32 | 14.8 | 51.5
IMC-1 (IL-2 20 ng/mL) [10] | 0.67 | -4.76 | 0.93 | 6.64 | 58.2
KAI3 (IL-2 2.5 ng/mL) [7] | -1.88 | -7.11 | -2.63 | 14.7 | 40.9
KHYG-1 (IL-2 2.5 ng/mL) [14] | -0.61 | -1.53 | 4.6 | 13.5 | 64
NK-92 (IL-2 2.5 ng/mL) [3] | -0.51 | -7.45 | -6.19 | 10.8 | 47.6
NK-YS (IL-2 2.5 ng/mL) [11] | -3.99 | -3.72 | 3.63 | 20.3 | 47.6
NKL (IL-2 2.5 ng/mL) [2] | -15.9 | -16.8 | -9.05 | 13.2 | 71.2
SNK-6 (IL-2 2.5 ng/mL) [13] | 8.11 | -3.58 | -13.1 | -25.4 | 8.78
YT (IL-2 2.5 ng/mL) [4] | -4.27 | -0.56 | 3.3 | 13.5 | 56.8
[1] | 1.11 | -7.13 | 0.02 | 9.12 | 35.7
[5] | 3.62 | 7.45 | -14.2 | -14.4 | -16.2
[6] | -16.9 | -6.81 | -3.2 | -3.66 | 38.2
[8] | -3.1 | -0.66 | -15.6 | -7.74 | 4.64
[9] | -6.62 | -9.78 | -6.35 | -8.64 | 19.9

Conditions | drug sensitivity score
DERL-7 (IL-2 2.5 ng/mL) [25] | 4.97
IMC-1 (IL-2 20 ng/mL) [23] | 4.25
KAI3 (IL-2 2.5 ng/mL) [20] | 4.12
KHYG-1 (IL-2 2.5 ng/mL) [27] | 5.69
NK-92 (IL-2 2.5 ng/mL) [16] | 4.21
NK-YS (IL-2 2.5 ng/mL) [24] | 4.74
NKL (IL-2 2.5 ng/mL) [15] | 6.1
SNK-6 (IL-2 2.5 ng/mL) [26] | 0
YT (IL-2 2.5 ng/mL) [17] | 5.2
[18] | 0
[19] | 1.6
[21] | 0
[22] | 0.34
[28] | 3.1
